Experimental findings from patent publication US20110166234A1, “MEDICINAL PRODUCT AND TREATMENT” (priority 2008, published 2011) are described below.

Molecules are shown by their SMILES.

This series deals with human patients suffering from osteoarthritis. In words: Clinical study in osteoarthritis patients: patient-recorded adverse side effects. The following applies: 4 weeks. The series is classed as in vivo. The text has this:
Four groups of patients were selected and each group was given one or other of the following medications over a four week period:
All patients were aged from 45-80 and had been suffering from chronic knee pain due to osteoarthritis for at least 6 months. Patients went through a washout period of their existing osteoarthritis treatments. […] At the beginning of the study, and also at conclusion of each subsequent week, patients were required to visit a physician and complete a WOMAC questionnaire and a Global Pain Rating Assessment.
In terms of adverse side effects patients were asked to keep a record of these, if any.

On to `CC(C)Cc1ccc(C(C)C(=O)O)cc1` (centres unmarked) [Ibuprofen, ibuprofen], for which the “adverse side effects recorded” value is listed as “two probable adverse effects” (Ibuprofen High group: 2 × 300 mg ibuprofen tablets four times daily, 2,400 mg per day, both related to gastric discomfort) and “no confirmed or probable adverse side effects” (Ibuprofen Low group: 2 × 150 mg ibuprofen tablets four times daily, 1,200 mg per day).
